Experimental data as given in PubChem BioAssay AID248 (DTP/NCI, 2004).
Where “and” joins values, the source holds several entries; their conditions need not be identical. Identical values can stand only once. Toxic doses and inconclusive results are not listed. Cut-off read from the data, not from the text of the source: active = T/C of 150% or more; inactive = T/C below 125%.

Test system: L1210 leukemia ip in BDF1 mice, survival T/C
Test: NCI In Vivo Anticancer Drug Screen. Data for tumor model L1210 Leukemia (intraperitoneal) in B6D2F1 (BDF1) mice
Settings: endpoint: mean survival time, higher = longer survival
Summary of the method: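 Transplantable tumor model; survival measured in treated vs vehicle control mice. Value = treated/control.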

[1] = dose: 100.0 mg/kg/injection, schedule: Q04DX003 (ip), vehicle: saline
[2] = dose: 200.0 mg/kg/injection, schedule: Q04DX003 (ip), vehicle: saline
[3] = dose: 400.0 mg/kg/injection, schedule: Q04DX003 (ip), vehicle: saline
[4] = dose: 100.0 mg/kg/injection, schedule: Q01DX001 (ip), vehicle: other
[5] = dose: 200.0 mg/kg/injection, schedule: Q01DX001 (ip), vehicle: other
[6] = dose: 400.0 mg/kg/injection, schedule: Q01DX001 (ip), vehicle: other
[7] = dose: 100.0 mg/kg/injection, schedule: Q04DX003 (ip), vehicle: Klucel (hydroxypropylcellulose) (HPC)
[8] = dose: 200.0 mg/kg/injection, schedule: Q04DX003 (ip), vehicle: Klucel (hydroxypropylcellulose) (HPC)
[9] = dose: 400.0 mg/kg/injection, schedule: Q04DX003 (ip), vehicle: Klucel (hydroxypropylcellulose) (HPC)

Measured: T/C

COc1nncc(-c2cnnc(OC)n2)n1
inactive: dose: 12.5 mg/kg/injection, schedule: Q04DX002 (ip), vehicle: Klucel (hydroxypropylcellulose) (HPC) 112 % of control | dose: 25.0 mg/kg/injection, schedule: Q04DX002 (ip), vehicle: Klucel (hydroxypropylcellulose) (HPC) 105 % of control | dose: 50.0 mg/kg/injection, schedule: Q04DX002 (ip), vehicle: Klucel (hydroxypropylcellulose) (HPC) 109 % of control

c1ccc2c[n+](CC[n+]3ccc4ccccc4c3)ccc2c1
inactive: dose: 75.0 mg/kg/injection, schedule: Q04DX003 (ip), vehicle: saline 98 % of control

CN(C)C(C)(C)CNc1ccc(C(=O)O)cc1
inactive: dose: 6.0 mg/kg/injection, schedule: Q01DX009 (ip), vehicle: saline 96 % of control | dose: 12.0 mg/kg/injection, schedule: Q01DX009 (ip), vehicle: saline 97 % of control | dose: 25.0 mg/kg/injection, schedule: Q01DX009 (ip), vehicle: saline 100 % of control and 98 % of control | dose: 50.0 mg/kg/injection, schedule: Q01DX009 (ip), vehicle: saline 109 % of control | [1] 98 % of control | [2] 101 % of control

CCS(=O)CC
inactive: dose: 100.0 mg/kg/injection, schedule: Q04DX002 (ip), vehicle: saline 106 % of control | [1] 101 % of control and 108 % of control | dose: 200.0 mg/kg/injection, schedule: Q04DX002 (ip), vehicle: saline 89 % of control | [2] 94 % of control and 97 % of control | dose: 400.0 mg/kg/injection, schedule: Q04DX002 (ip), vehicle: saline 95 % of control | [3] 101 % of control and 104 % of control

Nc1nnnn1-c1ccccc1-c1ccccc1
inactive: dose: 100.0 mg/kg/injection, schedule: Q01DX009 (ip), vehicle: Klucel (hydroxypropylcellulose) (HPC) 101 % of control | dose: 200.0 mg/kg/injection, schedule: Q01DX009 (ip), vehicle: Klucel (hydroxypropylcellulose) (HPC) 104 % of control | dose: 400.0 mg/kg/injection, schedule: Q01DX009 (ip), vehicle: Klucel (hydroxypropylcellulose) (HPC) 114 % of control

O=C(O)Cc1ccc2ccccc2c1Br
inactive: [1] 97 % of control | [2] 95 % of control | [3] 90 % of control

NCCc1ccc(F)cc1
inactive: dose: 100.0 mg/kg/injection, schedule: Q01DX009 (ip), vehicle: saline 109 % of control | dose: 200.0 mg/kg/injection, schedule: Q01DX009 (ip), vehicle: saline 97 % of control

NC(=O)c1cccs1
inactive: dose: 5.0 mg/kg/injection, schedule: Q01DX001 (ip), vehicle: saline 98 % of control | dose: 10.0 mg/kg/injection, schedule: Q01DX001 (ip), vehicle: saline 98 % of control | dose: 20.0 mg/kg/injection, schedule: Q01DX001 (ip), vehicle: saline 98 % of control | dose: 40.0 mg/kg/injection, schedule: Q01DX001 (ip), vehicle: saline 102 % of control

CCC(C)COC(=O)c1cccc2c1-c1ccccc1C2=O (stereo not drawn)
inactive: [4] 98 % of control | [5] 88 % of control | [6] 93 % of control

C(=NC(c1ccccc1)(c1ccccc1)c1ccccc1)=NC(c1ccccc1)(c1ccccc1)c1ccccc1
inactive: dose: 25.0 mg/kg/injection, schedule: Q01DX009 (ip), vehicle: gum acacia 88 % of control | dose: 50.0 mg/kg/injection, schedule: Q01DX009 (ip), vehicle: gum acacia 90 % of control | dose: 100.0 mg/kg/injection, schedule: Q04DX003 (ip), vehicle: gum acacia 93 % of control | dose: 200.0 mg/kg/injection, schedule: Q01DX009 (ip), vehicle: gum acacia 88 % of control | dose: 200.0 mg/kg/injection, schedule: Q04DX003 (ip), vehicle: gum acacia 91 % of control | dose: 400.0 mg/kg/injection, schedule: Q01DX009 (ip), vehicle: gum acacia 88 % of control | dose: 400.0 mg/kg/injection, schedule: Q04DX003 (ip), vehicle: gum acacia 86 % of control

CC(O)Cc1c(Cc2ccccc2)nc(N)[nH]c1=O (stereo not drawn)
inactive: [1] 96 % of control | [2] 97 % of control | [3] 92 % of control

COc1ccc(CC(=O)NNC(=O)C2(C(C)C)OC3(O)CCCCN3C2=O)cc1OC (stereo not drawn)
inactive: dose: 25.0 mg/kg/injection, schedule: Q04DX003 (ip), vehicle: saline 101 % of control | dose: 50.0 mg/kg/injection, schedule: Q04DX003 (ip), vehicle: saline 92 % of control | [1] 106 % of control | [2] 92 % of control

O=C(COc1ccc(Cl)cc1C(=O)O)NCc1cccc2ccccc12
inactive: [7] 97 % of control | [8] 98 % of control | [9] 100 % of control

CC(=O)NC1C(OC(C)=O)OC2COCOC2C1OC(C)=O (stereo not drawn)
inactive: dose: 100.0 mg/kg/injection, schedule: Q01DX001 (ip), vehicle: saline with Tween-80 97 % of control | dose: 200.0 mg/kg/injection, schedule: Q01DX001 (ip), vehicle: saline with Tween-80 97 % of control | dose: 400.0 mg/kg/injection, schedule: Q01DX001 (ip), vehicle: saline with Tween-80 105 % of control

CCCS(=O)(=O)C(S(C)(=O)=O)S(=O)(=O)CC (stereo not drawn)
inactive: dose: 100.0 mg/kg/injection, schedule: Q01DX001 (ip), vehicle: Klucel (hydroxypropylcellulose) (HPC) 94 % of control | dose: 200.0 mg/kg/injection, schedule: Q01DX001 (ip), vehicle: Klucel (hydroxypropylcellulose) (HPC) 98 % of control | dose: 400.0 mg/kg/injection, schedule: Q01DX001 (ip), vehicle: Klucel (hydroxypropylcellulose) (HPC) 91 % of control

CC(=O)NNC(N)=S
inactive: dose: 100.0 mg/kg/injection, schedule: Q04DX002 (ip), vehicle: Klucel (hydroxypropylcellulose) (HPC) 87 % of control | dose: 200.0 mg/kg/injection, schedule: Q04DX002 (ip), vehicle: Klucel (hydroxypropylcellulose) (HPC) 87 % of control | dose: 400.0 mg/kg/injection, schedule: Q04DX002 (ip), vehicle: Klucel (hydroxypropylcellulose) (HPC) 97 % of control

CSc1nc([N+](=O)[O-])c2cnccn12
inactive: dose: 6.25 mg/kg/injection, schedule: Q01DX009 (ip), vehicle: saline with Tween-80 88 % of control | dose: 12.5 mg/kg/injection, schedule: Q01DX009 (ip), vehicle: saline with Tween-80 93 % of control | dose: 12.5 mg/kg/injection, schedule: Q04DX003 (ip), vehicle: saline with Tween-80 101 % of control | dose: 25.0 mg/kg/injection, schedule: Q01DX009 (ip), vehicle: saline with Tween-80 93 % of control | dose: 25.0 mg/kg/injection, schedule: Q04DX003 (ip), vehicle: saline with Tween-80 103 % of control | dose: 50.0 mg/kg/injection, schedule: Q01DX009 (ip), vehicle: saline with Tween-80 93 % of control

COc1nc(NNC(N)=S)ccc1[N+](=O)[O-]
inactive: [7] 91 % of control | [8] 93 % of control | [9] 93 % of control

CCNC(=O)NC1C(O)OC(CO)C(O)C1O (stereo not drawn)
inactive: dose: 100.0 mg/kg/injection, schedule: Q01DX001 (ip), vehicle: saline 96 % of control | [1] 99 % of control | dose: 200.0 mg/kg/injection, schedule: Q01DX001 (ip), vehicle: saline 103 % of control | [2] 99 % of control | dose: 400.0 mg/kg/injection, schedule: Q01DX001 (ip), vehicle: saline 102 % of control | [3] 95 % of control

CC(=O)c1ccccc1[N+](=O)[O-]
inactive: dose: 100.0 mg/kg/injection, schedule: Q04DX003 (ip), vehicle: saline with Tween-80 107 % of control | dose: 200.0 mg/kg/injection, schedule: Q04DX003 (ip), vehicle: saline with Tween-80 96 % of control | dose: 400.0 mg/kg/injection, schedule: Q04DX003 (ip), vehicle: saline with Tween-80 94 % of control

CCOc1ccccc1/C=N/Nc1nnc(N/N=C/c2ccccc2OCC)c2ccccc12
inactive: dose: 50.0 mg/kg/injection, schedule: Q01DX001 (ip), vehicle: carboxymethylcellulose (CMC) 91 % of control | dose: 100.0 mg/kg/injection, schedule: Q01DX001 (ip), vehicle: carboxymethylcellulose (CMC) 97 % of control | dose: 200.0 mg/kg/injection, schedule: Q01DX001 (ip), vehicle: carboxymethylcellulose (CMC) 97 % of control | dose: 400.0 mg/kg/injection, schedule: Q01DX001 (ip), vehicle: carboxymethylcellulose (CMC) 91 % of control

O=C(O)C1=NN(c2cc(Cl)c(S(=O)(=O)O)cc2Cl)C(=O)C1
inactive: [1] 92 % of control | [2] 100 % of control | [3] 106 % of control

Cc1cc(C)cc(OCC(=O)O)c1
inactive: [7] 95 % of control | [8] 90 % of control | [9] 106 % of control

CNNC(=O)Cc1ccccc1
inactive: [4] 92 % of control | [5] 108 % of control | [6] 108 % of control
